This note sets out measurements from ChEMBL document CHEMBL1201862, “PubChem BioAssay data set” (2004).

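Cultured in 96-well plates, cells were exposed to test compound for 48 hours across five concentrations. Here, GI50 denotes the concentration required for 50% inhibition of growth.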 The source made the active and inactive calls. Cut-off read from the data, not from the text of the source: active = GI50 up to about 1.1 µM and inactive = higher. Some results are limits rather than exact numbers.

Some test systems named below: OVCAR-3; RPMI-8226; HCT-116; PC-3; SK-OV-3; RXF 393; HT-29; SW-620; NCI/ADR-RES; NCI-H522; A549; HOP-62; KM12; HL-60; NCI-H460; 786-0; K562; SK-MEL-2; TK-10.
What all share (experiment): growth of human tumour cells (NCI), 48 h

As to `O=S(=O)(c1ccc2ccccc2c1)N1CCN(S(=O)(=O)c2ccc3ccccc3c2)CC1`, the GI50 in the test with OVCAR-3 is 36 µM (inactive); in the test with RPMI-8226, > 100 µM (inactive); with HCT-116 it was > 100 µM (inactive); in the test on PC-3, > 100 µM (inactive); with SK-OV-3 it was 51.3 µM (inactive); in the test with RXF 393 it was > 100 µM (inactive). Moreover, the GI50 in the test on HT-29 was > 100 µM (inactive); in the test on SW-620, > 100 µM (inactive); in the test on NCI/ADR-RES, > 100 µM (inactive); in the test with NCI-H522, > 100 µM (inactive); with A549, > 100 µM (inactive); with HOP-62 it was 33.5 µM (inactive). For the same compound, the GI50 with KM12, in the test on HL-60, in the test with NCI-H460, in the test with 786-0, in the test with K562 and in the test with SK-MEL-2 was > 100 µM (inactive) throughout. In the test with TK-10, the GI50 is > 100 µM (inactive).
Take `COc1cc(C2c3cc4c(cc3OC(N3CCOCC3)C2C)OCO4)cc(OC)c1OC(C)=O` (stereo not given): the GI50 in the test on OVCAR-3 was 8.07 µM (inactive); with RPMI-8226, 26.3 µM (inactive); in the test with HCT-116, 7.52 µM (inactive); in the test with PC-3, 13.5 µM (inactive); with SK-OV-3, 11.3 µM (inactive); in the test on RXF 393, 11.6 µM (inactive). Moreover, the GI50 with HT-29 is 11.5 µM (inactive); with SW-620, 6.12 µM (inactive); in the test with NCI/ADR-RES it was 4.69 µM (inactive); with NCI-H522 it was 4.3 µM (inactive); with A549, 15 µM (inactive); with HOP-62 it was 12.4 µM (inactive). Further, the GI50 with KM12 is 5.35 µM (inactive); in the test on HL-60, 4.65 µM (inactive); in the test with NCI-H460, 7.69 µM (inactive); in the test on 786-0 it was 15.8 µM (inactive); in the test on K562 it was 3.81 µM (inactive); in the test on SK-MEL-2, 12.9 µM (inactive). For the same compound, in the test with TK-10, the GI50 is 30.7 µM (inactive).
For `CCOc1cc(/C=N/c2nc3cc4sc(/N=C/c5ccc(O)c(OCC)c5)nc4cc3s2)ccc1O`, the GI50 in the test on OVCAR-3, in the test on RPMI-8226, in the test with HCT-116, in the test on PC-3, with SK-OV-3 and in the test on RXF 393 was > 100 µM (inactive) each time. Further, the GI50 in the test on HT-29 is 60.4 µM (inactive); in the test with SW-620 it was 38.7 µM (inactive); in the test with NCI/ADR-RES it was > 100 µM (inactive); in the test on NCI-H522, 50.4 µM (inactive); in the test on A549, 52.4 µM (inactive); in the test with HOP-62, > 100 µM (inactive). For the same compound, the GI50 with KM12 is > 100 µM (inactive); in the test with HL-60, 3.62 µM (inactive); with NCI-H460, 20.4 µM (inactive); in the test with 786-0, > 100 µM (inactive); with K562, 60.5 µM (inactive); in the test on SK-MEL-2, > 100 µM (inactive). Moreover, the GI50 in the test on TK-10 was > 100 µM (inactive).
For `O=C1C=CC(=O)c2c1ccc1c3ccccc3n(-c3cccc([N+](=O)[O-])c3)c21`, the GI50 was 2.13 µM (inactive) in the test on OVCAR-3; 1 µM (active) in the test with RPMI-8226; 1.92 µM (inactive) in the test on HCT-116; > 8.3 µM (inactive) with PC-3; > 10 µM (inactive) in the test with SK-OV-3; 2.38 µM (inactive) in the test with RXF 393. Besides, the GI50 in the test on HT-29 was > 10 µM (inactive); in the test with SW-620 it was 0.804 µM (active); in the test on NCI/ADR-RES it was > 5.58 µM (inactive); in the test on NCI-H522, 1.91 µM (inactive); in the test on A549, > 10 µM (inactive); in the test on HOP-62, > 10 µM (inactive). For the same compound, the GI50 is > 7.98 µM (inactive) with KM12; 0.474 µM (active) with HL-60; > 10 µM (inactive) in the test with NCI-H460; 1.91 µM (inactive) in the test with 786-0; 0.367 µM (active) in the test with K562; > 10 µM (inactive) in the test on SK-MEL-2. Also, the GI50 in the test with TK-10 was 2.24 µM (inactive).
On to `COC(=O)/C=C1/OC(c2ccc(OC)cc2)=C(Cl)C1=O`, for which the GI50 in the test on OVCAR-3 was 13.3 µM (inactive); in the test with RPMI-8226, 3.95 µM (inactive); in the test on HCT-116 it was 13.5 µM (inactive); in the test on PC-3, 15.2 µM (inactive); with SK-OV-3, 16.7 µM (inactive); in the test with RXF 393, 10 µM (inactive). Moreover, the GI50 with HT-29 was 15.4 µM (inactive); in the test on SW-620, 12.4 µM (inactive); with NCI/ADR-RES it was 25.8 µM (inactive); in the test on NCI-H522, 14.6 µM (inactive); in the test on A549 it was 23.7 µM (inactive); in the test with HOP-62, 20.6 µM (inactive). Moreover, the GI50 with KM12 was 18.1 µM (inactive); in the test on HL-60, 3.8 µM (inactive); with NCI-H460 it was 18.4 µM (inactive); in the test on 786-0, 12.1 µM (inactive); in the test on K562, 2.73 µM (inactive); in the test with SK-MEL-2 it was 17.2 µM (inactive). Also, the GI50 in the test with TK-10 is 24.3 µM (inactive).
Regarding `COc1ccc(C(=C(I)c2ccccc2)c2ccc(OC)cc2)cc1`, the GI50 in the test on OVCAR-3 was > 100 µM (inactive); with RPMI-8226, > 100 µM (inactive); in the test with HCT-116 it was 51.3 µM (inactive); with PC-3, > 100 µM (inactive); with SK-OV-3, > 100 µM (inactive); in the test with RXF 393, > 100 µM (inactive). Further, the GI50 in the test with HT-29 is 7.23 µM (inactive); in the test on SW-620, > 100 µM (inactive); in the test with NCI/ADR-RES, > 100 µM (inactive); with NCI-H522, > 100 µM (inactive); in the test with A549, > 100 µM (inactive); with HOP-62, > 100 µM (inactive). Further, the GI50 in the test with KM12 was > 100 µM (inactive); with HL-60, 64.9 µM (inactive); in the test with NCI-H460, > 100 µM (inactive); with 786-0 it was > 100 µM (inactive); with K562 it was > 100 µM (inactive); with SK-MEL-2, > 100 µM (inactive). In addition, the GI50 in the test with TK-10 is > 100 µM (inactive).
`CC(NC(=O)N(C)C)NC(=O)N(C)C`: the GI50 in the test with OVCAR-3, in the test on RPMI-8226, in the test with HCT-116, in the test on PC-3, in the test on SK-OV-3 and in the test with RXF 393 was > 10 µM (inactive) throughout. The GI50 in the test with HT-29, in the test with SW-620, in the test on NCI/ADR-RES, with NCI-H522, with A549 and in the test with HOP-62 was > 10 µM (inactive) in each case. Moreover, the GI50 in the test with KM12, in the test with HL-60, with NCI-H460, in the test on 786-0, in the test with K562 and with SK-MEL-2 was > 10 µM (inactive) throughout. Besides, in the test with TK-10, the GI50 is > 10 µM (inactive).
For `CCCNC1=C2C[C@@H](C)C[C@@H](OC)[C@@H](OC(=O)CCCN)[C@H](C)/C=C(\C)[C@@H](OC(N)=O)[C@H](OC)/C=C\C=C(/C)C(=O)NC(=CC1=O)C2=O`, the GI50 with OVCAR-3 was 8.61 µM (inactive); in the test with RPMI-8226 it was 5.94 µM (inactive); with HCT-116, 8.97 µM (inactive); with PC-3 it was 12.6 µM (inactive); in the test on SK-OV-3, 16.4 µM (inactive); with RXF 393, 11.8 µM (inactive). The GI50 was 7.05 µM (inactive) with HT-29; 10.6 µM (inactive) in the test with SW-620; 28.8 µM (inactive) in the test with NCI/ADR-RES; 5.02 µM (inactive) in the test with NCI-H522; 15.7 µM (inactive) in the test with A549; 15.6 µM (inactive) in the test with HOP-62. The GI50 in the test on KM12 is 10.6 µM (inactive); in the test with HL-60 it was 2.13 µM (inactive); with NCI-H460 it was 11.2 µM (inactive); in the test on 786-0 it was 20.8 µM (inactive); in the test on K562 it was 4.75 µM (inactive); in the test with SK-MEL-2 it was 14.9 µM (inactive). Further, the GI50 with TK-10 is 17.9 µM (inactive).
With `CN(C)/N=N/c1ccc2[nH]c(=O)[nH]c2c1`, the GI50 in the test with OVCAR-3, in the test with RPMI-8226, in the test with HCT-116, in the test with PC-3, in the test on SK-OV-3 and in the test with RXF 393 was > 100 µM (inactive) each time. Further, the GI50 with HT-29, in the test on SW-620, in the test on NCI/ADR-RES, in the test on NCI-H522, in the test with A549 and in the test with HOP-62 was > 100 µM (inactive) each time. The GI50 with KM12 was > 100 µM (inactive); in the test on HL-60, 19.2 µM (inactive); in the test with NCI-H460, > 100 µM (inactive); with 786-0, > 100 µM (inactive); in the test on K562 it was > 100 µM (inactive); in the test with SK-MEL-2, > 100 µM (inactive). Further, the GI50 with TK-10 was > 100 µM (inactive).
Take `CCOC(=O)c1c2c(n3ccccc13)C(=O)c1ccccc1C2=O`: the GI50 is > 100 µM (inactive) with OVCAR-3; > 100 µM (inactive) with RPMI-8226; > 100 µM (inactive) in the test on HCT-116; > 100 µM (inactive) with PC-3; > 100 µM (inactive) with SK-OV-3; 48.1 µM (inactive) with RXF 393. The GI50 in the test with HT-29 was > 100 µM (inactive); in the test on SW-620 it was > 100 µM (inactive); in the test on NCI/ADR-RES, > 100 µM (inactive); in the test on NCI-H522 it was > 100 µM (inactive); in the test on A549 it was 3.82 µM (inactive); in the test on HOP-62 it was 97.9 µM (inactive). Moreover, the GI50 in the test on KM12 is > 100 µM (inactive); in the test on HL-60, > 100 µM (inactive); in the test with NCI-H460, 3.52 µM (inactive); with 786-0, 19.1 µM (inactive); with K562, > 100 µM (inactive); with SK-MEL-2, > 100 µM (inactive). In addition, the GI50 with TK-10 is 83.4 µM (inactive).
